# System: patient of a nonalcoholic fatty liver disease (NAFLD)
# Experiment: Effect of compound A on blood LDL-C and cholesterol synthesis/absorption markers in NAFLD patients, compared with placebo
# Type: in vivo, human
# Conditions: for fasting blood LDL-C concentration (rate of change from baseline): FIG. 1
# [1] = NAFLD patients, 0.4 mg per day oral, 8 weeks, vs placebo, FIG. 3
smiles,measurement,setting,value
"CC[C@@H](Oc1cccc(CN(CCCOc2ccc(OC)cc2)c2nc3ccccc3o2)c1)C(=O)O [compound A, (R)-2-[3-[[N-(benzoxazol-2-yl)-N-3-(4-methoxyphenoxy)propyl]aminomethyl]phenoxy]butyric acid]",fasting blood LDL-C concentration (rate of change from baseline),"NAFLD patients who did not take any existing agent for reducing LDL-C, 0.4 mg per day oral, 12 weeks, vs placebo",reduced a fasting blood LDL-C concentration as compared to the placebo administration
same,fasting blood LDL-C concentration (rate of change from baseline),"NAFLD patients, entire group including patients taking an existing agent for reducing LDL-C, 0.4 mg per day oral (0.2 mg twice a day), 12 weeks, vs placebo",reduced a fasting blood LDL-C concentration as compared to the placebo administration
same,"fasting blood concentration of campesterol (absorption marker for cholesterol), rate of change from baseline",[1],reduced the fasting blood concentration of sitosterol and the fasting blood concentration of campesterol
same,"fasting blood concentration of lathosterol (synthesis marker for cholesterol), rate of change from baseline",[1],reduced the fasting blood concentration of lathosterol
same,"fasting blood concentration of sitosterol (absorption marker for cholesterol), rate of change from baseline",[1],reduced the fasting blood concentration of sitosterol
same,reducing effect on LDL-C for each initial value of the blood LDL-C,"NAFLD patients, 0.4 mg per day oral, 12 weeks, FIG. 2",became larger as the blood LDL-C concentration before the administration thereof increased
